Data published in ChEMBL document CHEMBL3085634, “Identification of elaiophylin derivatives from the marine-derived actinomycete Streptomyces sp. 7-145 using PCR-based screening” (2013).
In brackets after ≈: the same amount, converted by molar mass.

Legend:
Format in all cases: functional
[1] = system: Klebsiella pneumoniae; assay: Antibacterial activity against New Delhi metallo-beta-lactamase 1 producing Klebsiella pneumoniae ATCC BAA-2146 assessed as growth inhibition after 18 hrs by agar dilution method; conditions: ATCC BAA-2146, 18 h
[2] = system: Staphylococcus aureus; assay: Antibacterial activity against methicillin-resistant Staphylococcus aureus R6101 assessed as growth inhibition after 18 hrs by agar dilution method; conditions: R6101, 18 h
[3] = system: Staphylococcus epidermidis; assay: Antibacterial activity against methicillin-sensitive Staphylococcus epidermidis ATCC 12228 assessed as growth inhibition after 18 hrs by agar dilution method; conditions: ATCC 12228, 18 h
[4] = system: Escherichia coli; assay: Antibacterial activity against extended spectrum beta-lactamase producing Escherichia coli 09-1 assessed as growth inhibition after 18 hrs by agar dilution method; conditions: 09-1, 18 h
[5] = system: Staphylococcus aureus; assay: Antibacterial activity against methicillin-resistant Staphylococcus aureus 09-13 assessed as growth inhibition after 18 hrs by agar dilution method; conditions: 09-13, 18 h
[6] = system: Enterococcus faecalis; assay: Antibacterial activity against vancomycin-resistant Enterococcus faecalis ATCC 51299 assessed as growth inhibition after 18 hrs by agar dilution method; conditions: ATCC 51299, 18 h
[7] = system: Staphylococcus aureus; assay: Antibacterial activity against methicillin-sensitive Staphylococcus aureus ATCC 29213 assessed as growth inhibition after 18 hrs by agar dilution method; conditions: ATCC 29213, 18 h
[8] = system: Enterococcus faecalis; assay: Antibacterial activity against vancomycin-sensitive Enterococcus faecalis 09-8 assessed as growth inhibition after 18 hrs by agar dilution method; conditions: 09-8, 18 h
[9] = system: Escherichia coli; assay: Antibacterial activity against beta-lactamase producing Escherichia coli 09-20 assessed as growth inhibition after 18 hrs by agar dilution method; conditions: 09-20, 18 h
[10] = system: Staphylococcus aureus; assay: Antibacterial activity against methicillin-sensitive Staphylococcus aureus 09-6 assessed as growth inhibition after 18 hrs by agar dilution method; conditions: 09-6, 18 h
[11] = system: Staphylococcus epidermidis; assay: Antibacterial activity against methicillin-resistant Staphylococcus epidermidis 09-3 assessed as growth inhibition after 18 hrs by agar dilution method; conditions: 09-3, 18 h
[12] = system: Morganella morganii; assay: Antibacterial activity against beta-lactamase producing Morganella morganii ATCC 25830 assessed as growth inhibition after 18 hrs by agar dilution method; conditions: ATCC 25830, 18 h
[13] = system: Enterococcus faecalis; assay: Antibacterial activity against vancomycin-resistant Enterococcus faecalis R6512 assessed as growth inhibition after 18 hrs by agar dilution method; conditions: R6512, 18 h
[14] = system: Staphylococcus aureus; assay: Antibacterial activity against methicillin-resistant Staphylococcus aureus ATCC 33591 assessed as growth inhibition after 18 hrs by agar dilution method; conditions: ATCC 33591, 18 h
[15] = system: Klebsiella pneumoniae; assay: Antibacterial activity against extended spectrum beta-lactamase producing Klebsiella pneumoniae ATCC 700603 assessed as growth inhibition after 18 hrs by agar dilution method; conditions: ATCC 700603, 18 h
[16] = system: Staphylococcus aureus; assay: Antibacterial activity against thiostrepton-resistant Staphylococcus aureus ATCC 6538P assessed as growth inhibition after 18 hrs by agar dilution method
[17] = system: Enterococcus faecium; assay: Antibacterial activity against vancomycin-sensitive Enterococcus faecium 09-10 assessed as growth inhibition after 18 hrs by agar dilution method; conditions: 09-10, 18 h
[18] = system: Micrococcus luteus; assay: Antibacterial activity against apramycin-resistant Micrococcus luteus ATCC 10240 assessed as growth inhibition after 18 hrs by agar dilution method; conditions: ATCC 10240, 18 h
[19] = system: Pseudomonas aeruginosa; assay: Antibacterial activity against beta-lactamase producing Pseudomonas aeruginosa ATCC 27853 assessed as growth inhibition after 18 hrs by agar dilution method; conditions: ATCC 27853, 18 h
[20] = system: Enterococcus faecalis; assay: Antibacterial activity against vancomycin-sensitive Enterococcus faecalis ATCC 29212 assessed as growth inhibition after 18 hrs by agar dilution method; conditions: ATCC 29212, 18 h
[21] = system: Enterococcus faecalis; assay: Antibacterial activity against vancomycin-resistant Enterococcus faecalis W4138 assessed as growth inhibition after 18 hrs by agar dilution method; conditions: W4138, 18 h
[22] = system: Enterococcus faecium; assay: Antibacterial activity against vancomycin-resistant Enterococcus faecium ATCC 700221 assessed as growth inhibition after 18 hrs by agar dilution method; conditions: ATCC 700221, 18 h
[23] = system: Staphylococcus epidermidis; assay: Antibacterial activity against methicillin-sensitive Staphylococcus epidermidis 09-9 assessed as growth inhibition after 18 hrs by agar dilution method; conditions: 09-9, 18 h

Compound	MIC [1] [µg/mL]	MIC [2] [µg/mL]	MIC [3] [µg/mL]	MIC [4] [µg/mL]	MIC [5] [µg/mL]	MIC [6] [µg/mL]	MIC [7] [µg/mL]	MIC [8] [µg/mL]	MIC [9] [µg/mL]	MIC [10] [µg/mL]	MIC [11] [µg/mL]	MIC [12] [µg/mL]	MIC [13] [µg/mL]	MIC [14] [µg/mL]	MIC [15] [µg/mL]	MIC [16] [µg/mL]	MIC [17] [µg/mL]	MIC [18] [µg/mL]	MIC [19] [µg/mL]	MIC [20] [µg/mL]	also measured
CC[C@@H]1[C@@H](C)OC([C@@H](C)[C@H](O)[C@H](C)[C@H]2OC(=O)/C=C/C=C/[C@H](C)[C@@H]([C@@H](C)[C@@H](O)[C@H](C)[C@@]3(O)C[C@@H](O[C@H]4C[C@H](O)[C@H](O)[C@H](C)O4)[C@H](CC)[C@@H](C)O3)OC(=O)/C=C/C=C/[C@@H]2C)=C[C@H]1O[C@H]1C[C@H](O)[C@H](O)[C@H](C)O1	> 64	> 64	> 64	> 64	2 (≈ 1.99 µM)	2 (≈ 1.99 µM)	2 (≈ 1.99 µM)	2 (≈ 1.99 µM)	> 64	2 (≈ 1.99 µM)	> 64	> 64	4 (≈ 3.97 µM)	2 (≈ 1.99 µM)	> 64	4 (≈ 3.97 µM)	> 64	2 (≈ 1.99 µM)	> 64	2 (≈ 1.99 µM)	MIC [21]: 4 µg/mL (≈ 3.97 µM); MIC [22]: 4 µg/mL (≈ 3.97 µM)
CC[C@@H]1[C@@H](C)O[C@@](OC)([C@@H](C)[C@H](O)[C@H](C)[C@H]2OC(=O)/C=C/C=C/[C@H](C)[C@@H]([C@@H](C)[C@@H](O)[C@H](C)[C@@]3(OC)C[C@@H](O[C@H]4C[C@H](O)[C@H](O)[C@H](C)O4)[C@H](C)[C@@H](C)O3)OC(=O)/C=C/C=C/[C@@H]2C)C[C@H]1O[C@H]1C[C@H](O)[C@H](O)[C@H](C)O1	> 128	16 (≈ 15.4 µM)	64 (≈ 61.6 µM)	> 128	32 (≈ 30.8 µM)	64 (≈ 61.6 µM)	32 (≈ 30.8 µM)	64 (≈ 61.6 µM)	> 128	32 (≈ 30.8 µM)	64 (≈ 61.6 µM)	> 128	> 128	32 (≈ 30.8 µM)	> 128	> 128	64 (≈ 61.6 µM)	128 (≈ 123 µM)	> 128	64 (≈ 61.6 µM)	MIC [21]: 64 µg/mL (≈ 61.6 µM); MIC [22]: 64 µg/mL (≈ 61.6 µM)
CC[C@@H]1[C@@H](C)O[C@@](OC)([C@@H](C)[C@H](O)[C@H](C)[C@H]2OC(=O)/C=C/C=C/[C@H](C)[C@@H]([C@@H](C)[C@@H](O)[C@H](C)[C@@]3(O)C[C@@H](O[C@H]4C[C@H](O)[C@H](O)[C@H](C)O4)[C@H](CC)[C@@H](C)O3)OC(=O)/C=C/C=C/[C@@H]2C)C[C@H]1O[C@H]1C[C@H](O)[C@H](O)[C@H](C)O1	> 256	1 (≈ 0.962 µM)	2 (≈ 1.92 µM)	> 256	2 (≈ 1.92 µM)	1 (≈ 0.962 µM)	2 (≈ 1.92 µM)	2 (≈ 1.92 µM)	> 256	2 (≈ 1.92 µM)	2 (≈ 1.92 µM)	> 256	1 (≈ 0.962 µM)	2 (≈ 1.92 µM)	> 256	2 (≈ 1.92 µM)	2 (≈ 1.92 µM)	2 (≈ 1.92 µM)	> 256	32 (≈ 30.8 µM)	MIC [23]: 2 µg/mL (≈ 1.92 µM); MIC [21]: 2 µg/mL (≈ 1.92 µM); MIC [22]: 2 µg/mL (≈ 1.92 µM)
CC[C@@H]1[C@@H](C)O[C@@](O)([C@@H](C)[C@H](O)[C@H](C)[C@H]2OC(=O)/C=C/C=C/[C@H](C)[C@@H]([C@@H](C)[C@@H](O)[C@H](C)[C@@]3(O)C[C@@H](O[C@H]4C[C@H](O)[C@H](O)[C@H](C)O4)[C@H](C)[C@@H](C)O3)OC(=O)/C=C/C=C/[C@@H]2C)C[C@H]1O[C@H]1C[C@H](O)[C@H](O)[C@H](C)O1	> 64	2 (≈ 1.98 µM)	4 (≈ 3.96 µM)	> 64	2 (≈ 1.98 µM)	2 (≈ 1.98 µM)	2 (≈ 1.98 µM)	16 (≈ 15.8 µM)	> 64	2 (≈ 1.98 µM)	4 (≈ 3.96 µM)	> 64	2 (≈ 1.98 µM)	2 (≈ 1.98 µM)	> 64	2 (≈ 1.98 µM)	> 64	2 (≈ 1.98 µM)	> 64	2 (≈ 1.98 µM)	MIC [21]: 4 µg/mL (≈ 3.96 µM); MIC [22]: 2 µg/mL (≈ 1.98 µM)
